Laboratory results reported in patent publication US11377438B2, “2-amino-n-heteroaryl-nicotinamides as Nav1.8 inhibitors” (Merck Sharp & Dohme Corp., priority 2018, dated 2022).

Target: human Nav1.8 (Homo sapiens (Human), UniProt Q9Y5Y9)
Test: Nav1.8 Qube automated patch-clamp assay
Type: cell-based
Conditions: human Nav1.8 stably expressed in HEK 293 cells, whole-cell voltage clamp, room temperature; read-out: IC50 (nM) in the Nav 1.8 Qube Assay
Method: Qube® Assay Experimental Procedure Compounds were tested on human Nav1.8 and Nav1.5 channels stably expressed in human embryo kidney (HEK) 293 cells. Sodium current measurements on Qube® were conducted as follows: automated 384-well patch-clamp assays on the Qube® platform (Sophion Biosciences) were used to measure the inhibition of sodium flow through human Nav1.8 and Nav1.5 channels. Whole-cell voltage-clamp recordings were performed in QChips® (Sophion Biosciences) at room temperature. Nav1.8 current measurements on Qube® were obtained as follows: Nav1.8 currents were elicited with a 10 second 1 Hertz (Hz) pulse train from a holding potential of −90 millivolts (mV), delivered to the cells once per minute in the control condition (DMSO only) and after compound addition. The 1 hertz pulse train stimulation consisted often test pulses to 10 millivolt (mV) for 20 milliseconds (ms), each of which was followed by a 980 millisecond repolarization to −67 millivolts. At the end of the 10 second pulse train stimulation, a 5 second hyperpolarization step to −100 millivolt (mV) was used to recover Nav1.8 from fast inactivation. The peak currents elicited by the 1st and 10th test pulses were used to determine IC50 values for resting inhibition and inactivated state inhibition. Nav1.5 current measurements on Qube® were obtained as follows: Nav1.5 currents were elicited with a 20 second 3 Hertz pulse train in the control condition (DMSO only) and after compound addition. The pulse train consisted of sixty 20 millisecond test pulses to 0 millivolt from a holding potential of −80 millivolt (mV). The average peak currents elicited by the last 3 test pulses were used to determine IC50 values for Nav1.5 inhibition.
The following buffers were used for the Qube® recordings: External buffer for Nav1.8 Qube® recording: 150 NaCl, 2 CaCl2, 5 KCl, 1 Mg Cl2, 10 HEPES, 12 Dextrose; External buffer for Qube® Nav1.5 recording: 120 N-Methyl-D-Glucamine, 40 NaCl, 1 KCl, 2.7 CaCl2), 5 HEPES, 0.5 MgCl2; and Internal buffer for Qube® recording: 120 CsF, 30 CsCl, 10 EGTA, 5 HEPES, 5 NaF, 2 MgCl2.
For all Qube® experiments offline analysis was used to determine percent inhibition as a function of drug concentration. IC50 values were determined by fitting to the Hill equation.

human Nav1.8, sequence (Q9Y5Y9 whole entry): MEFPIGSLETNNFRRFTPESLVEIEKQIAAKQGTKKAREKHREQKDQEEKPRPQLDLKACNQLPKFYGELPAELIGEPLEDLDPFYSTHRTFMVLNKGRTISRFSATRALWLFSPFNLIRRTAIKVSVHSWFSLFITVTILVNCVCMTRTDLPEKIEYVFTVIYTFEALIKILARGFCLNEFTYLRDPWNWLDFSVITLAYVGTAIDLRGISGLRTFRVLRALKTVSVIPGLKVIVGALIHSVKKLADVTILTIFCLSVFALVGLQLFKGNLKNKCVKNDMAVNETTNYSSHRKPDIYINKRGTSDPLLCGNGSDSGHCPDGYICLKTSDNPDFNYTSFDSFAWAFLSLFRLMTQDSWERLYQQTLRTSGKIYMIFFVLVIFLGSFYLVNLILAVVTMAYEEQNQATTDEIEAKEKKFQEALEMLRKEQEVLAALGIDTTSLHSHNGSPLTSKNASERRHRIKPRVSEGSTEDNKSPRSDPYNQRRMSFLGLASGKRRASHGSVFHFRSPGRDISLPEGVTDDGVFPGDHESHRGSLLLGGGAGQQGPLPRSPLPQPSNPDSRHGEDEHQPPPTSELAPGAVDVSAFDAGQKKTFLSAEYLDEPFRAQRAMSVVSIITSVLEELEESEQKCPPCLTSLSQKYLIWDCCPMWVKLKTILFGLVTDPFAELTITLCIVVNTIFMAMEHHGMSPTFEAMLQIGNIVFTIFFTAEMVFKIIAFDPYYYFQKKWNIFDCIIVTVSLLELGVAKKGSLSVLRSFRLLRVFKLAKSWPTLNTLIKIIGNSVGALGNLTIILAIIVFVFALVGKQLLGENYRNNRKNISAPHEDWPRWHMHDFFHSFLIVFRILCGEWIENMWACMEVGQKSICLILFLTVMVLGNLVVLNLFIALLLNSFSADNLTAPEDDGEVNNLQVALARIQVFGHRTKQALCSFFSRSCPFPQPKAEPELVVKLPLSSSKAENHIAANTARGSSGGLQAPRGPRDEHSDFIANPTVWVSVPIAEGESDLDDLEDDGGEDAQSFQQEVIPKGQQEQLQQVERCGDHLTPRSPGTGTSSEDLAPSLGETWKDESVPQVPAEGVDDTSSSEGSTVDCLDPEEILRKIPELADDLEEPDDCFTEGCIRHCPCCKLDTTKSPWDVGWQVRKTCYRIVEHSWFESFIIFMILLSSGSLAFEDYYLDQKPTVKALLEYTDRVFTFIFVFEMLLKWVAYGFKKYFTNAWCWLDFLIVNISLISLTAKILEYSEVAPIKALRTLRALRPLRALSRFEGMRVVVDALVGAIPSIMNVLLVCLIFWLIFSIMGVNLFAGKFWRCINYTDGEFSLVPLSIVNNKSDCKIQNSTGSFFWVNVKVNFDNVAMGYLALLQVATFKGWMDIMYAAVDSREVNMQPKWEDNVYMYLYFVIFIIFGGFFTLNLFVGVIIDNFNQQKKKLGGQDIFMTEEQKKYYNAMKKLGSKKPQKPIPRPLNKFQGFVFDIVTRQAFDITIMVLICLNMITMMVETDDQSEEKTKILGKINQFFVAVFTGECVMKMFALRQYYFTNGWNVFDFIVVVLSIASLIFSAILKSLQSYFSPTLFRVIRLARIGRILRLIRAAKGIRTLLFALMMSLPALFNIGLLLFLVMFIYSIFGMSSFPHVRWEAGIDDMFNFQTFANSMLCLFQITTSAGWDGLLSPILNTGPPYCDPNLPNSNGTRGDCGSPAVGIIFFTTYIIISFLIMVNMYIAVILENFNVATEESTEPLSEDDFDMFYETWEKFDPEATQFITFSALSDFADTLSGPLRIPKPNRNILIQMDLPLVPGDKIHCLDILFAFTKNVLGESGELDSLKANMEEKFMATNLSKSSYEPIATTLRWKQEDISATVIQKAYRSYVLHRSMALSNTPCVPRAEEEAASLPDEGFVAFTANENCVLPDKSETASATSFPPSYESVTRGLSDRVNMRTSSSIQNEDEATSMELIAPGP

Structure (SMILES) | IC50
Cc1ccc(C(=O)Nc2ccnc(S(N)(=O)=O)c2)c(N2CCCC(F)(F)CC2)n1 [Example 17, 2-(4,4-difluoroazepan-1-yl)-6-methyl-N-(2-sulfamoylpyridin-4-yl)nicotinamide] | 3.1 nM
C[C@@H]1CN(c2ncc(C(F)(F)F)cc2C(=O)Nc2ccnc(C(N)=O)c2)C[C@H](C)C1(F)F [Example 156, 4-(2-((3S,5R)-4,4-difluoro-3,5-dimethylpiperidin-1-yl)-5 (trifluoromethyl)nicotinamido)picolinamide] | 58 nM
CC[C@@H]1CN(c2ncc(C(F)(F)F)cc2C(=O)Nc2ccnc(S(N)(=O)=O)c2)C[C@@H](C(F)(F)F)O1 (single isomer, unassigned) [Example 133, 2-((2R,6S or 2S,6R)-2-ethyl-6-(trifluoromethyl)morpholino)-N-(2-sulfamoylpyridin-4-yl)-5-(trifluoromethyl)nicotinamide] | 12 nM
CC1CN(c2ncc(C(F)(F)F)cc2C(=O)Nc2ccnc(S(N)(=O)=O)c2)CCC(C(F)(F)F)O1 (single isomer, unassigned) [Example 121, 2-((2R,7S or 2S.7R)-2-methyl-7-(trifluoromethyl)-1,4-oxazepan-4-yl)-N-(2-sulfamoylpyridin-4-yl)-5-(trifluoromethyl)nicotinamide] | 58 nM
C[C@@H]1CN(c2nc(C3CCC3)ccc2C(=O)Nc2ccnc(S(N)(=O)=O)c2)C[C@H](C)C1(F)F [Example 166, 6-cyclobutyl-2-((3S,5R)-4,4-difluoro-3,5-dimethylpiperidin-1-yl)-N-(2-sulfamoylpyridin-4-yl)nicotinamide] | 13 nM
Cc1nc(N2CCC(F)(F)CC2)c(C(=O)Nc2ccnc(S(N)(=O)=O)c2)cc1C1CCC1 [Example 15, 5-cyclobutyl-2-(4,4-difluoropiperidin-1-yl)-6-methyl-N-(2-sulfamoylpyridin-4-yl)nicotinamide] | 6.5 nM
Cc1nc(N2C[C@@H](C)C(F)(F)[C@@H](C)C2)c(C(=O)Nc2ccnc(S(N)(=O)=O)c2)cc1Cl [Example 53, 5-chloro-2-[(3S,5R)-4,4-difluoro-3,5-dimethyl-1-piperidyl]-6-methyl-N-(2-sulfamoyl-4-pyridyl)pyridine-3-carboxamide] | 0.8 nM
NS(=O)(=O)c1cc(NC(=O)c2cc(C(F)(F)F)cnc2N2CCCC(F)(F)CC2)ccn1 [Example 13, 2-(4,4-difluoroazepan-1-yl)-N-(2-sulfamoylpyridin-4-yl)-5-(trifluoromethyl)nicotinamide] | 4.1 nM
NS(=O)(=O)c1cc(NC(=O)c2ccc(C3CC3)nc2N2CCCC(F)(F)CC2)ccn1 [Example 22, 6-cyclopropyl-2-(4,4-difluoroazepan-1-yl)-N-(2-sulfamoylpyridin-4-yl)nicotinamide] | 3 nM
Cc1nc(N2CCC(F)(F)CC2)c(C(=O)Nc2ccnc(S(N)(=O)=O)c2)cc1C#CC1CC1 [Example 16, 5-(cyclopropylethynyl)-2-(4,4-difluoropiperidin-1-yl)-6-methyl-N-(2-sulfamoylpyridin-4-yl)nicotinamide] | 12 nM
Cc1cc(C(=O)Nc2ccnc(S(N)(=O)=O)c2)c(N2CCCC(F)(F)CC2)nc1C [Example 19, 2-(4,4-difluoroazepan-1-yl)-5,6-dimethyl-N-(2-sulfamoylpyridin-4-yl)nicotinamide] | 1.6 nM
C[C@@H]1CN(c2nc(C3CCC3)c(Cl)cc2C(=O)Nc2ccnc(S(N)(=O)=O)c2)C[C@H](C)C1(F)F [Example 169, 5-chloro-6-cyclobutyl-2-((3S,5R)-4,4-difluoro-3,5-dimethylpiperidin-1-yl)-N-(2-sulfamoylpyridin-4-yl)nicotinamide] | 6.9 nM
C[C@@H]1CN(c2nc(C3CCC3)c(Cl)cc2C(=O)Nc2ccnc(S(N)(=O)=O)c2)C[C@@H](C(F)(F)F)O1 (single isomer, unassigned) [Example 160, 5-chloro-6-cyclobutyl-2-((2R,6S or 2S,6R)-2-methyl-6-(trifluoromethyl)morpholino)-N-(2-sulfamoylpyridin-4-yl)nicotinamide] | 9.2 nM
Cc1nc(N2CCCC(F)(F)CC2)c(C(=O)Nc2ccnc(S(N)(=O)=O)c2)cc1Cl [Example 172, 5-chloro-2-(4,4-difluoroazepan-1-yl)-6-methyl-N-(2-sulfamoylpyridin-4-yl)nicotinamide] | 0.3 nM
NS(=O)(=O)c1cc(NC(=O)c2cc(Cl)c(C3CCC3)nc2N2CCCC(F)(F)CC2)ccn1 [Example 23, 5-chloro-6-cyclobutyl-2-(4,4-difluoroazepan-1-yl)-N-(2-sulfamoylpyridin-4-yl)nicotinamide] | 2.6 nM
NS(=O)(=O)c1cc(NC(=O)c2ccc(C(F)(F)F)nc2N2CCCC(F)(F)CC2)ccn1 [Example 132, 2-(4,4-difluoroazepan-1-yl)-N-(2-sulfamoylpyridin-4-yl)-6-(trifluoromethyl)nicotinamide] | 5.3 nM
NS(=O)(=O)c1cc(NC(=O)c2cc(OC(F)(F)F)cnc2N2CCCC(F)(F)CC2)ccn1 [Example 177, 2-(4,4-difluoroazepan-1-yl)-N-(2-sulfamoylpyridin-4-yl)-5-(trifluoromethoxy)nicotinamide] | 2.8 nM
C[C@H]1CN(c2nc(C3CCC3)c(Cl)cc2C(=O)Nc2ccnc(S(N)(=O)=O)c2)C[C@H](C(F)(F)F)O1 (single isomer, unassigned) [Example 161, 5-chloro-6-cyclobutyl-2-((2S,6R or 2R,6S)-2-methyl-6-(trifluoromethyl)morpholino)-N-(2-sulfamoylpyridin-4-yl)nicotinamide] | 63 nM
NS(=O)(=O)c1cc(NC(=O)c2ccc(Cl)nc2N2CCCC(F)(F)CC2)ccn1 [Example 138, 6-chloro-2-(4,4-difluoroazepan-1-yl)-N-(2-sulfamoyl-4-pyridyl)pyridine-3-carboxamide] | 5.8 nM
NS(=O)(=O)c1cc(NC(=O)c2cc(CC3CC3)cnc2N2CCCC(F)(F)CC2)ccn1 [Example 46, 5-(cyclopropylmethyl)-2-(4,4-difluoroazepan-1-yl)-N-(2-sulfamoylpyridin-4-yl)nicotinamide] | 1 nM
NS(=O)(=O)c1cc(NC(=O)c2cc(Cl)c(C3CC3)nc2N2CCCC(F)(F)CC2)ccn1 [Example 21, 5-chloro-6-cyclopropyl-2-(4,4-difluoroazepan-1-yl)-N-(2-sulfamoylpyridin-4-yl)nicotinamide] | 4.5 nM
C[C@@H]1CN(c2ncc(C(F)(F)F)cc2C(=O)Nc2ccnc(S(C)(=O)=O)c2)C[C@H](C)C1(F)F [Example 147, 2-((3S,5R)-4,4-difluoro-3,5-dimethylpiperidin-1-yl)-N-(2-(methylsulfonyl)pyridin-4-yl)-5-(trifluoromethyl)nicotinamide] | 22 nM
NS(=O)(=O)c1cc(NC(=O)c2ccc(CC3CC3)nc2N2CCCC(F)(F)CC2)ccn1 [Example 18, 6-(cyclopropylmethyl)-2-(4,4-difluoroazepan-1-yl)-N-(2-sulfamoylpyridin-4-yl)nicotinamide] | 0.9 nM
CC[C@H]1CN(c2ncc(C(F)(F)F)cc2C(=O)Nc2ccnc(S(N)(=O)=O)c2)C[C@H](C(F)(F)F)O1 (single isomer, unassigned) [Example 134, 2-((2S,6R or 2R,6S)-2-ethyl-6-(trifluoromethyl)morpholino)-N-(2-sulfamoylpyridin-4-yl)-5-(trifluoromethyl)nicotinamide] | 155 nM
C[C@@H]1CN(c2nc(C3CCC3)ccc2C(=O)Nc2ccnc(S(N)(=O)=O)c2)C[C@@H](C(F)(F)F)O1 (single isomer, unassigned) [Example 167, 6-cyclobutyl-2-((2R,6S or 2S,6R)-2-methyl-6-(trifluoromethyl)morpholino)-N-(2-sulfamoylpyridin-4-yl)nicotinamide] | 52 nM
C[C@H]1CN(c2nc(C3CCC3)ccc2C(=O)Nc2ccnc(S(N)(=O)=O)c2)C[C@H](C(F)(F)F)O1 (single isomer, unassigned) [Example 168, 6-cyclobutyl-2-((2S,6R or 2R,6S)-2-methyl-6-(trifluoromethyl)morpholino)-N-(2-sulfamoylpyridin-4-yl)nicotinamide] | 17 nM
O=C(Nc1cnn(S(=O)(=O)C2CC2)c1)c1cc(C(F)(F)F)cnc1N1CCCC(F)(F)CC1 [Example 36, N-[1-(cyclopropylsulfonyl)-1H-pyrazol-4-yl]-2-(4,4-difluoroazepan-1-yl)-5-(trifluoromethyl)pyridine-3-carboxamide] | 147 nM
Cc1nc(N2CCCC(F)(F)CC2)c(C(=O)Nc2ccnc(S(N)(=O)=O)c2)cc1C(F)(F)F [Example 184, 2-(4,4-difluoroazepan-1-yl)-6-methyl-N-(2-sulfamoylpyridin-4-yl)-5-(trifluoromethyl)nicotinamide] | 0.5 nM
